Biological target: T1, human CCR5 chemokine receptor (Homo sapiens, UniProt P51681)
T1 construct: expressed in transfected cells; host or cells: NIH 3T3 cells (murine), membranes
Assay: CCR5 membrane binding assay (inhibition of RANTES binding)
Conditions: 125I-RANTES; membranes from NIH 3T3 cells expressing the human CCR5 chemokine receptor; one hour incubation
Method: CCR5 Membrane Binding Assay:
A high throughput screen utilizing a CCR5 membrane binding assay identifies inhibitors of RANTES binding. This assay utilizes membranes prepared from NIH 3T3 cells expressing the human CCR5 chemokine receptor which have the ability to bind to RANTES, a natural ligand for the receptor. […] Compounds are serially diluted over a wide range of 0.001 ug/ml to 1 ug/ml and tested in triplicates. Reaction cocktails are harvested through glass fiber filters, and washed thoroughly.

T1 sequence (P51681 whole entry): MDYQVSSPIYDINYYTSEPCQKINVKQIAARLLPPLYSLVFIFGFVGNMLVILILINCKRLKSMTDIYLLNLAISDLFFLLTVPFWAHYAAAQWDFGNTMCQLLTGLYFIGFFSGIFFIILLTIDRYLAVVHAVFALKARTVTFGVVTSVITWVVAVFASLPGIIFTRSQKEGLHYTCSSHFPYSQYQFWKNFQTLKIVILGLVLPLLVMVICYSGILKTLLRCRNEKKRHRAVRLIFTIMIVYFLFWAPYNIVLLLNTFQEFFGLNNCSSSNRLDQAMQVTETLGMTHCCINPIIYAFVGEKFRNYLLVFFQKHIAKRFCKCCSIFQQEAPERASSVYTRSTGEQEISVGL

| Ki [nM] | Compound |
| --- | --- |
| 60 | Cc1cccc(C)c1C(=O)N1CCC(N2CCN(C(C)c3ccc(-c4ccccc4)cc3)C(C)C2)CC1 (centres unmarked) [Example 16] |
| 10.5 | Cc1cccc(C)c1C(=O)N1CCC(N2CCN(C(C)c3ccc(I)cc3)C(C)C2)CC1 (centres unmarked) [Example 11] |

From patent EP1632479A2, “Piperazine derivatives useful as ccr5 antagonists” (SCHERING CORPORATION, priority 1999, dated 2000)
